{"source": "ChEMBL document CHEMBL1201862", "about": "“PubChem BioAssay data set” (2004)", "key": {"[1]": {"system": "BJ", "assay": "cytotoxicity toward BJ-TERT fibroblasts, dose response, cell-based, RAS-independent, luminescence (AID 1933)", "format": "functional", "details": "Homo sapiens"}, "[2]": {"biological_target": "Melanocortin receptor 4 (Homo sapiens, UniProt P32245)", "format": "functional, cell-based"}, "[3]": {"assay": "cells"}, "[4]": {"assay": "C. albicans growth with fluconazole, confirmation, fluorescence, retest (AID 2467)", "format": "functional, cell-based"}, "[5]": {"biological_target": "Troponin, cardiac muscle (Homo sapiens, UniProt P19429+P45379+P63316)", "assay": "Fluorescence-based biochemical high throughput dose response assay for activators of the calcium sensitivity of cardiac Regulated Thin Filaments (RTF). [Related pubchem assays (depositor defined):AID493008, AID493018, AID504382, AID504383]", "format": "protein-complex assay"}, "[6]": {"biological_target": "Genome polyprotein (Hepatitis C virus, UniProt Q2Q167)", "assay": "HCV core protein dimerization inhibitors, dose response, biochemical, TR-FRET (AID 2159);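 also: blocks dimerization of HCV core protein measured by TR-FRET between tagged core106 pairs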", "parameters": "species or system Hepacivirus hominis"}, "[7]": {"biological_target": "Probable nicotinate-nucleotide adenylyltransferase (Staphylococcus aureus (strain N315), UniProt P65502)", "format": "functional, Staphylococcus aureus subsp. aureus N315"}, "[8]": {"assay": "inhibitors of firefly luciferase expression or activity, dose response, H4 neuroglioma cells, luminescence (AID 1990)", "format": "functional, cell-based"}, "[9]": {"assay": "growth suppression of PTEN-null colon cells, dose response, cell-based, HCT116 PTEN knockout (AID 1047);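 also: HCT116 colon tumor cells with PTEN knocked out; cells exposed to compound for 60 hours before readout; potency for loss of cell viability measured by luminescence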", "format": "functional"}, "[10]": {"assay": "Artemis endonuclease inhibitor potency, dose response, biochemical, fluorescence intensity (AID 720701);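 also: Artemis endonuclease enzyme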", "format": "functional"}, "[11]": {"biological_target": "Serine/threonine-protein phosphatase PP1-alpha catalytic subunit (Homo sapiens, UniProt P62136)", "assay": "PP1 phosphatase inhibitors, dose response, biochemical, fluorescence (AID 2394)"}, "[12]": {"biological_target": "Mothers against decapentaplegic homolog 3 (Homo sapiens, UniProt P84022)", "assay": "SMAD3 transcription factor inhibitors, dose response (AID 715)", "format": "functional"}, "[13]": {"biological_target": "T1, Tyrosine-protein phosphatase non-receptor type 22 (Homo sapiens, UniProt Q9Y2R2)", "T1 sequence (Q9Y2R2 whole entry)": "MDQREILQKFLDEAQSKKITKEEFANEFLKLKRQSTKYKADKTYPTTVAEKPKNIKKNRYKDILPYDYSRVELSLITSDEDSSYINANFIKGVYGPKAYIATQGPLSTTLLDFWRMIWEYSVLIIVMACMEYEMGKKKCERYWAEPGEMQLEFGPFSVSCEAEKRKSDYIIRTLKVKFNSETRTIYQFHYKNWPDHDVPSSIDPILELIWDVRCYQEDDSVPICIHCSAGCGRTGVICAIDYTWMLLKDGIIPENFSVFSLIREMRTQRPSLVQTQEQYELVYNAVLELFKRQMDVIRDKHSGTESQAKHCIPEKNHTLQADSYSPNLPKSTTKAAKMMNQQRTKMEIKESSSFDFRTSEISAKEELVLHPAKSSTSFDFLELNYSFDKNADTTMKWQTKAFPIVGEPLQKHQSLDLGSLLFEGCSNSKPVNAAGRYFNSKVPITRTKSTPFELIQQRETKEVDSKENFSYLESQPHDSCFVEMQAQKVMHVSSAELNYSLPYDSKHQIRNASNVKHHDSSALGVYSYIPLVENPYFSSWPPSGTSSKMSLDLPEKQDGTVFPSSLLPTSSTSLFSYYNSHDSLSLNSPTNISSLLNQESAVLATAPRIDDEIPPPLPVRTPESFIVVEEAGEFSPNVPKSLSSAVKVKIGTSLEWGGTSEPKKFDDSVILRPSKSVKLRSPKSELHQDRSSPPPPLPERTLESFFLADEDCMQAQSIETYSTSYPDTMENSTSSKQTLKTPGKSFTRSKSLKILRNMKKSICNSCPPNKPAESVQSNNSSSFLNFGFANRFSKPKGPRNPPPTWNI", "assay": "PTPN22 phosphatase inhibition, dose response, selectivity assay for STEP inhibitor project, biochemical (AID 624241)", "format": "functional"}, "[14]": {"biological_target": "T2, Tyrosine-protein phosphatase non-receptor type 11 (Homo sapiens, UniProt Q06124)", "T2 sequence (Q06124 whole entry)": "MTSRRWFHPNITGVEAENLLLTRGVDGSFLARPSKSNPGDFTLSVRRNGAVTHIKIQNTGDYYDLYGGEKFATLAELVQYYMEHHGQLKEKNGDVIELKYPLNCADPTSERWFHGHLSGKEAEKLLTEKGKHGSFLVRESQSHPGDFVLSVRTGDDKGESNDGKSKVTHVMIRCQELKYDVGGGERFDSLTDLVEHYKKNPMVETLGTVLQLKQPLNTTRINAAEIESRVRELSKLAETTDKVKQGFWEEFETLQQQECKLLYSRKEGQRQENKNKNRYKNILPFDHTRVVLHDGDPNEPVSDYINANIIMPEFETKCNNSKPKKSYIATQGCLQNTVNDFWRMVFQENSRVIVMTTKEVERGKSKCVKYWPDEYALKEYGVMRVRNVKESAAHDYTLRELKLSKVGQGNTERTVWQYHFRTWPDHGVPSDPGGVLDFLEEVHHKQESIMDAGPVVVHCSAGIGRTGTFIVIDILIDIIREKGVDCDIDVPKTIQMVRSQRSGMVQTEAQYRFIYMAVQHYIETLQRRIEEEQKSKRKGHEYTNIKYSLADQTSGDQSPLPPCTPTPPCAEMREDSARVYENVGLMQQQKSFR", "assay": "SHP2 phosphatase inhibition, dose response, selectivity assay for STEP inhibitor project, biochemical (AID 602367)", "format": "functional", "details": "read-out: IC50_Mean"}, "[15]": {"biological_target": "Voltage-gated N-type calcium channel alpha-1B subunit/Amyloid beta A4 precursor protein-binding family A member 1 (Homo sapiens, UniProt Q00975+Q02410)", "format": "protein assay"}, "[16]": {"biological_target": "T1, Tyrosine-protein phosphatase non-receptor type 22", "assay": "SAR LYP1 Fluorescent Assay using OMFP substrate for In Vitro dose response studies - Set 4. [Related pubchem assays (depositor defined):AID1779, AID1784, AID2140, AID2686]", "format": "functional"}, "[17]": {"biological_target": "T3, Caspase-3 (Homo sapiens, UniProt P42574)", "T3 sequence (P42574 whole entry)": "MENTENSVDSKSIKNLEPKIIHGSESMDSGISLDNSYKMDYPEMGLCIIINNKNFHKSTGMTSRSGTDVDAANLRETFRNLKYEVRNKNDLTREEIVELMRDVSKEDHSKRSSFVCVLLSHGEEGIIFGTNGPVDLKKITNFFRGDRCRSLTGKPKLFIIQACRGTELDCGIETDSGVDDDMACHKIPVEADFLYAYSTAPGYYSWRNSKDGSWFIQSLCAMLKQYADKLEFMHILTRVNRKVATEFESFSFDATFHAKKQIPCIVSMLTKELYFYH", "assay": "Dose-response confirmation of uHTS inhibitor hits of Sentrin-Specific Protease 8 in a Caspase-3 Fluorescence assay.", "format": "functional"}}, "note": "Active and inactive are the calls of the source.", "data": [{"molecule": "CCN1/C(=C/c2ccc3cc(C)ccc3[n+]2CC)Sc2cc(C)c(C)cc21", "values": [{"measurement": "EC50", "setting": "[1]", "value": "0.337 µM (inconclusive)"}, {"measurement": "EC50", "setting": "[2]", "value": "> 3.3 µM (active)"}, {"measurement": "EC50", "setting": "[3]", "value": "0.046 µM (active)"}, {"measurement": "EC50", "setting": "[4]", "value": "< 0.03 µM (active)"}]}, {"molecule": "Nc1ccc2nc3c(O)nc(S)nc3nc2c1", "values": [{"measurement": "EC50", "setting": "[5]", "value": "1.14 µM (active)"}, {"measurement": "IC50", "setting": "[6]", "value": "> 49.8 µM (not active)"}, {"measurement": "IC50", "setting": "[7]", "value": "7.46 µM (active)"}]}, {"molecule": "Cc1oc2c(c1C(=O)c1ccccc1)C(=O)C(=O)c1ccccc1-2", "values": [{"measurement": "EC50", "setting": "[8]", "value": "> 120 µM (not active)"}, {"measurement": "EC50", "setting": "[9]", "value": "2.64 µM (active)"}, {"measurement": "IC50", "setting": "[10]", "value": "1.48 µM (active)"}]}, {"molecule": "O=C1CCCC2=C1C1(O)C(=O)c3ccccc3C1(O)O2", "note": "(configuration not stated)", "values": [{"measurement": "IC50", "setting": "[11]", "value": "> 67 µM (not active)"}, {"measurement": "IC50", "setting": "[12]", "value": "2.73 µM (active)"}]}, {"molecule": "CSc1ccc(C=NNc2ccc(S(=O)(=O)Nc3ccccc3C(=O)O)cc2[N+](=O)[O-])cc1", "values": [{"measurement": "IC50", "setting": "[13]", "value": "2.82 µM (active)"}, {"measurement": "IC50", "setting": "[14]", "value": "1.11 µM (active)"}]}, {"molecule": "O=C(O)COc1ccc(/C=N/NC(=O)c2ccc(-c3csc(Nc4ccc(Cl)cc4)n3)cc2)cc1", "values": [{"measurement": "IC50", "setting": "[15]", "value": "10.1 µM (active)"}, {"measurement": "IC50", "setting": "[16]", "value": "1.47 µM (active)"}]}, {"molecule": "COc1cc(NCCCNC(C)C)c2nccc(C)c2c1", "values": [{"measurement": "IC50", "setting": "[17]", "value": "13.8 µM (active)"}]}]}
